Here are results for 19 compounds from US7981903B2, “2-[2-{phenylamino}-1H-pyrrolo[2,3-D]pyrimidin-4-yl)amino] benzamide derivatives as IGF-1R inhibitors for the treatment of cancer” (GlaxoSmithKline LLC, priority 2007, dated 2011).

The structures appear in SMILES notation. Where only a bound is given, the exact number is not on record here.

For one assay, the system named is NCI-H929. Nature of the assay: Inhibition of cell proliferation (CellTiter-Glo or InCell analyzer), NCI-H929. It is filed as cell-based. The following applies: Homo sapiens, 72 h / 3 days, values given as IC50 category. The method, boiled down:
In one
(In general: Cellular ATP, detected with luciferase, serves as a proxy for viable cell number.)

The next assay deals with T1, human IGF1R (hIGF1R) (Homo sapiens, UniProt P08069).
T1 construct: containing amino acid residues 957-1367 of human IGF1R; made in house; host or cells: Sf9 cells (baculovirus)
The experiment in a line: TR-FRET kinase assay of purified hIGF1R. Format: biochemical. The following applies: activated hIGF1R 0.5 nM, 10 μM ATP, values given as pIC50 category, read-out: IGF-1R pIC50 (converted). On the technique in general: In TR-FRET formats the signal depends on donor and acceptor labels being close together.

For another assay, the system named is Colo205. Nature of the assay: Inhibition of cell proliferation (CellTiter-Glo or InCell analyzer), Colo205. Format: cell-based. The note with it: Homo sapiens, COLO 205, 72 h / 3 days, values given as IC50 category. The essentials:
In one

The target in assay [1] is T2, NIH-3T3 cells overexpressing human IGF-1R (Homo sapiens, UniProt P08069).
T2 construct: expressed in transfected cells; host or cells: NIH-3T3 (mouse fibroblasts)
The experiment in a line: IGF-1R cellular autophosphorylation (DELFIA). It is filed as cell-based. The essentials: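 Receptor autophosphorylation measured by DELFIA, capturing IGF-1R or IRβ and detecting with europium anti-pTyr, reported as percent of IGF-1- or insulin-stimulated signal. Compounds (30 uM to 1.5 nM) added 2 h before ligand, then 15 min stimulation (IGF-1 30 ng/ml or insulin 3 ug/ml).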

T1 sequence (P08069 957-1367): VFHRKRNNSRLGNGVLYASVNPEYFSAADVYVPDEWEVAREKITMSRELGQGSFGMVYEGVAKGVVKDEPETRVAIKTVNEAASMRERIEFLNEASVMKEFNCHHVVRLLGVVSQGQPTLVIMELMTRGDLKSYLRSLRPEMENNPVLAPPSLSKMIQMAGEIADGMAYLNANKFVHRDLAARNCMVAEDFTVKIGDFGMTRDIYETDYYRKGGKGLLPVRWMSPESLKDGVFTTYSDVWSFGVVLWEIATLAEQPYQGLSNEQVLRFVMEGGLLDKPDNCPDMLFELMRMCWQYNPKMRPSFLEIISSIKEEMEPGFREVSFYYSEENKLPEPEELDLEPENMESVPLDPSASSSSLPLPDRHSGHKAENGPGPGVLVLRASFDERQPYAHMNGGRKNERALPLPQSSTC
T2 sequence (P08069 31-1367): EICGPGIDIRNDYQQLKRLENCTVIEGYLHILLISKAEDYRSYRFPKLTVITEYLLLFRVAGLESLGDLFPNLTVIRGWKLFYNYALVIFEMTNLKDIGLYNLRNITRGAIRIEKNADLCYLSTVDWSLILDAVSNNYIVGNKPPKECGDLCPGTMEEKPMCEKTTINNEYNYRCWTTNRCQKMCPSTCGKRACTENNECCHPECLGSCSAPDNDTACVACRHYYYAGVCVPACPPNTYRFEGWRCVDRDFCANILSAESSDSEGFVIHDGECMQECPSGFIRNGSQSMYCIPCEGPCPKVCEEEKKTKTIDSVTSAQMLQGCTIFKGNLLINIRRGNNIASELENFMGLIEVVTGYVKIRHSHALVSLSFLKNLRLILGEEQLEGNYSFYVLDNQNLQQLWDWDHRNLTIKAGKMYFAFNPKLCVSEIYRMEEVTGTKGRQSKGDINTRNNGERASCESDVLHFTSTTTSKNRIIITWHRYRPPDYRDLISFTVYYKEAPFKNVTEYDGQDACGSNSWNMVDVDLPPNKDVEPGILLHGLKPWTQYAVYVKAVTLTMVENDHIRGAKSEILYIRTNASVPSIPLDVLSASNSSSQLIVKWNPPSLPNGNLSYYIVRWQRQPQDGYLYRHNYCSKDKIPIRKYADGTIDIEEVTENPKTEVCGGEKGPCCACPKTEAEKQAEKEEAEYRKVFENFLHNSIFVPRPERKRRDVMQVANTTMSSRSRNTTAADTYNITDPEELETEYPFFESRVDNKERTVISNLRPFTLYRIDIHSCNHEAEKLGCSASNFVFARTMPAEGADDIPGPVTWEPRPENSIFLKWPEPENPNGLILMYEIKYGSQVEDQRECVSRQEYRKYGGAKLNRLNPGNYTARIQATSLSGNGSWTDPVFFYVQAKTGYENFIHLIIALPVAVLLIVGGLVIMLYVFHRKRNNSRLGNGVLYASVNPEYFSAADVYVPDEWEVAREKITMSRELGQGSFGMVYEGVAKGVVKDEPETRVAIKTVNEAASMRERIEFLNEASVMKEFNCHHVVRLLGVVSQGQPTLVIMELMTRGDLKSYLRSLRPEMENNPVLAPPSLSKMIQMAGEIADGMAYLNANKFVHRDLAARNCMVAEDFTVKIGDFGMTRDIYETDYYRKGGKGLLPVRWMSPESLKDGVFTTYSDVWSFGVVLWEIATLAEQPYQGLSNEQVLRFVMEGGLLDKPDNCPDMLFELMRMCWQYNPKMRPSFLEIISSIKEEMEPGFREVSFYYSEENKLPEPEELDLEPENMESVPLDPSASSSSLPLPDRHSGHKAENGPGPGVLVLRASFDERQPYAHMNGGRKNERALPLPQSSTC

Consider `COc1cc(N2CCC(C3CCN(CCS(C)(=O)=O)CC3)CC2)ccc1Nc1nc(Nc2cccc(F)c2C(N)=O)c2cc[nH]c2n1` [Example 112, 2-fluoro-6-({2-[(2-(methyloxy)-4-{1′-[2-(methylsulfonyl)ethyl]-4,4′-bipiperidin-1-yl}phenyl)amino]-1H-pyrrolo[2,3-d]pyrimidin-4-yl}amino)benzamide], for which the IC50 was below 250 nM in the assay with NCI-H929, 1.26 to 3.98 nM on human IGF1R (hIGF1R), below 250 nM in the assay on Colo205 and 100 to 500 nM in assay [1].

Regarding `CNC(=O)c1c(F)cccc1Nc1nc(Nc2cc3c(cc2OC)C(C)(C)CN3C(=O)CN(C)C)nc2[nH]ccc12` [Example 127, 2-[(2-{[1-(N,N-dimethylglycyl)-3,3-dimethyl-5-(methyloxy)-2,3-dihydro-1H-indol-6-yl]amino}-1H-pyrrolo[2,3-d]pyrimidin-4-yl)amino]-6-fluoro-N-methylbenzamide], the IC50 is below 250 nM in the assay on NCI-H929, 1.26 to 3.98 nM on human IGF1R (hIGF1R), 250 to 1000 nM in the assay with Colo205 and below 100 nM in assay [1].

Take `CCCN1CCC=C(c2ccc(Nc3nc(Nc4cc(F)ccc4C(N)=O)c4cc[nH]c4n3)c(OC)c2)C1` [Example 70, 4-fluoro-2-[(2-{[2-(methyloxy)-4-(1-propyl-1,2,5,6-tetrahydro-3-pyridinyl)phenyl]amino}-1H-pyrrolo[2,3-d]pyrimidin-4-yl)amino]benzamide]: the IC50 in the assay on NCI-H929 was below 250 nM; on human IGF1R (hIGF1R) it was 0.251 to 1 nM; in the assay on Colo205, below 250 nM; in assay [1] it was below 100 nM.

Consider `COc1cc(N2CCC(N3CC[C@@H](F)C3)CC2)ccc1Nc1nc(Nc2cccc(F)c2C(N)=O)c2cc[nH]c2n1` [Example 44, 2-fluoro-6-[(2-{[4-{4-[(3R)-3-fluoro-1-pyrrolidinyl]-1-piperidinyl}-2-(methyloxy)phenyl]amino}-1H-pyrrolo[2,3-d]pyrimidin-4-yl)amino]benzamide], for which the IC50 in the assay with NCI-H929 is below 250 nM; on human IGF1R (hIGF1R), 1.26 to 3.98 nM; in the assay with Colo205, 250 to 1000 nM; in assay [1], above 500 nM.

As for `CCCN(C)CC(=O)N1CCc2cc(OC)c(Nc3nc(Nc4cccc(F)c4C(=O)NC)c4cc[nH]c4n3)cc21` [Example 167, 2-fluoro-N-methyl-6-[(2-{[5-(methyloxy)-1-(N-methyl-N-propylglycyl)-2,3-dihydro-1H-indol-6-yl]amino}-1H-pyrrolo[2,3-d]pyrimidin-4-yl)amino]benzamide], the IC50 is below 250 nM in the assay on NCI-H929, 1.26 to 3.98 nM at human IGF1R (hIGF1R), 250 to 1000 nM with Colo205 and 100 to 500 nM in assay [1].

On to `COc1cc(N2CCC(N3CCN(S(C)(=O)=O)CC3)CC2)ccc1Nc1nc(Nc2cccc(F)c2C(N)=O)c2cc[nH]c2n1` [Example 113, 2-fluoro-6-({2-[(2-(methyloxy)-4-{4-[4-(methylsulfonyl)-1-piperazinyl]-1-piperidinyl}phenyl)amino]-1H-pyrrolo[2,3-d]pyrimidin-4-yl}amino)benzamide], for which the IC50 in the assay on NCI-H929 was below 250 nM; on human IGF1R (hIGF1R) it was 1.26 to 3.98 nM; in the assay with Colo205, below 250 nM; in assay [1], below 100 nM.

Consider `COc1cc(N2CCC(N3CCN(CCF)CC3)CC2)ccc1Nc1nc(Nc2cccc(F)c2C(N)=O)c2cc[nH]c2n1` [Example 114, 2-fluoro-6-[(2-{[4-{4-[4-(2-fluoroethyl)-1-piperazinyl]-1-piperidinyl}-2-(methyloxy)phenyl]amino}-1H-pyrrolo[2,3-d]pyrimidin-4-yl)amino]benzamide], for which the IC50 with NCI-H929 is below 250 nM; at human IGF1R (hIGF1R) it was 1.26 to 3.98 nM; in the assay on Colo205 it was below 250 nM; in assay [1] it was below 100 nM.

For the compound `COc1cc(N2CCN(CCS(C)(=O)=O)CC2)c(C)cc1Nc1nc(Nc2cccc(F)c2C(N)=O)c2cc[nH]c2n1` [Example 52, 2-fluoro-6-({2-[(5-methyl-2-(methyloxy)-4-{4-[2-(methylsulfonyl)ethyl]-1-piperazinyl}phenyl)amino]-1H-pyrrolo[2,3-d]pyrimidin-4-yl}amino)benzamide], the IC50 is 250 to 1000 nM in the assay with NCI-H929, 1.26 to 3.98 nM on human IGF1R (hIGF1R), above 1000 nM in the assay on Colo205 and below 100 nM in assay [1].

`CCN(CC)CC(=O)N1CCc2cc(OC)c(Nc3nc(Nc4cccc(F)c4C(N)=O)c4cc[nH]c4n3)cc21` [Example 136, 2-[(2-{[1-(N,N-diethylglycyl)-5-(methyloxy)-2,3-dihydro-1H-indol-6-yl]amino}-1H-pyrrolo[2,3-d]pyrimidin-4-yl)amino]-6-fluorobenzamide]: the IC50 was below 250 nM in the assay with NCI-H929, 1.26 to 3.98 nM at human IGF1R (hIGF1R), 250 to 1000 nM in the assay with Colo205 and below 100 nM in assay [1].

With `CNC(=O)c1c(F)cc(Cl)cc1Nc1nc(Nc2cc3c(cc2OC)CCCN3C(=O)CN2CCCC2)nc2[nH]ccc12` [Example 174, 4-chloro-2-fluoro-N-methyl-6-[(2-{[6-(methyloxy)-1-(1-pyrrolidinylacetyl)-1,2,3,4-tetrahydro-7-quinolinyl]amino}-1H-pyrrolo[2,3-d]pyrimidin-4-yl)amino]benzamide], the IC50 with NCI-H929 was 250 to 1000 nM; on human IGF1R (hIGF1R) it was 1.26 to 3.98 nM; with Colo205 it was 250 to 1000 nM; in assay [1], 100 to 500 nM.

For the compound `Cc1cc2c(cc1Nc1nc(Nc3cccc(F)c3C(N)=O)c3cc[nH]c3n1)N(C(=O)CN(C)C)CCC2` [Example 246, 2-[(2-{[1-(N,N-dimethylglycyl)-6-methyl-1,2,3,4-tetrahydro-7-quinolinyl]amino}-1H-pyrrolo[2,3-d]pyrimidin-4-yl)amino]-6-fluorobenzamide], the IC50 with NCI-H929 was below 250 nM; on human IGF1R (hIGF1R), 1.26 to 3.98 nM; with Colo205, 250 to 1000 nM; in assay [1], 100 to 500 nM.

Turning to `COc1cc(N2CCC(N3CCN(CCS(C)(=O)=O)CC3)CC2)ccc1Nc1nc(Nc2cccc(F)c2C(N)=O)c2cc[nH]c2n1` [Example 115, 2-fluoro-6-[(2-{[2-(methyloxy)-4-(4-{4-[2-(methylsulfonyl)ethyl]-1-piperazinyl}-1-piperidinyl)phenyl]amino}-1H-pyrrolo[2,3-d]pyrimidin-4-yl)amino]benzamide], the IC50 was below 250 nM in the assay on NCI-H929, 1.26 to 3.98 nM on human IGF1R (hIGF1R), below 250 nM in the assay on Colo205 and 100 to 500 nM in assay [1].

For the compound `CCN(CCO)CC(=O)N1CCc2cc(OC)c(Nc3nc(Nc4cccc(F)c4C(N)=O)c4cc[nH]c4n3)cc21` [Example 177, 2-[(2-{[1-[N-ethyl-N-(2-hydroxyethyl)glycyl]-5-(methyloxy)-2,3-dihydro-1H-indol-6-yl]amino}-1H-pyrrolo[2,3-d]pyrimidin-4-yl)amino]-6-fluorobenzamide], the IC50 with NCI-H929 was 250 to 1000 nM; at human IGF1R (hIGF1R), 1.26 to 3.98 nM; in the assay on Colo205, above 1000 nM; in assay [1], 100 to 500 nM.

For `COc1cc(N2CCN(CC3CC3)CC2)ccc1Nc1nc(Nc2cc(F)ccc2C(N)=O)c2cc[nH]c2n1` [Example 81, 2-[(2-{[4-[4-(cyclopropylmethyl)-1-piperazinyl]-2-(methyloxy)phenyl]amino}-1H-pyrrolo[2,3-d]pyrimidin-4-yl)amino]-4-fluorobenzamide], the IC50 in the assay with NCI-H929 was below 250 nM; at human IGF1R (hIGF1R) it was 1.26 to 3.98 nM; with Colo205, below 250 nM; in assay [1] it was below 100 nM.

Take `COc1cc(N2CCCN(C)CC2)ccc1Nc1nc(Nc2cccc(F)c2C(N)=O)c2cc[nH]c2n1` [Example 209, 2-fluoro-6-[(2-{[4-(4-methylhexahydro-1H-1,4-diazepin-1-yl)-2-(methyloxy)phenyl]amino}-1H-pyrrolo[2,3-d]pyrimidin-4-yl)amino]benzamide]: the IC50 was below 250 nM in the assay on NCI-H929, 1.26 to 3.98 nM on human IGF1R (hIGF1R), below 250 nM with Colo205 and 100 to 500 nM in assay [1].

In the case of `COc1cc(C2CCN(C(C)C)CC2)ccc1Nc1nc(Nc2cc(F)c(F)cc2C(N)=O)c2cc[nH]c2n1` [Example 97, 4,5-difluoro-2-[(2-{[4-[1-(1-methylethyl)-4-piperidinyl]-2-(methyloxy)phenyl]amino}-1H-pyrrolo[2,3-d]pyrimidin-4-yl)amino]benzamide], the IC50 in the assay with NCI-H929 was below 250 nM; at human IGF1R (hIGF1R), 0.251 to 1 nM; in the assay with Colo205, below 250 nM; in assay [1], below 100 nM.

For `COc1cc(N2CCN(C(C)C)CC2)ccc1Nc1nc(Nc2ccc(F)c(F)c2C(N)=O)c2cc[nH]c2n1` [Example 94, 2,3-difluoro-6-[(2-{[4-[4-(1-methylethyl)-1-piperazinyl]-2-(methyloxy)phenyl]amino}-1H-pyrrolo[2,3-d]pyrimidin-4-yl)amino]benzamide], the IC50 in the assay with NCI-H929 was below 250 nM; at human IGF1R (hIGF1R) it was 1.26 to 3.98 nM; in the assay on Colo205, below 250 nM; in assay [1], 100 to 500 nM.

Turning to `CCNC(=O)c1c(F)cccc1Nc1nc(Nc2cc3c(cc2OC)CCN3C(=O)CN(C)C)nc2[nH]ccc12` [Example 126, 2-[(2-{[1-(N,N-dimethylglycyl)-5-(methyloxy)-2,3-dihydro-1H-indol-6-yl]amino}-1H-pyrrolo[2,3-d]pyrimidin-4-yl)amino]-N-ethyl-6-fluorobenzamide], the IC50 with NCI-H929 is below 250 nM; on human IGF1R (hIGF1R), 1.26 to 3.98 nM; with Colo205, 250 to 1000 nM; in assay [1], 100 to 500 nM.

With `CNC(=O)c1c(F)cccc1Nc1nc(Nc2cc3c(cc2OC)CCN3C(=O)CN(C)C)nc2[nH]cc(F)c12` [Example 253, 2-[(2-{[1-(N,N-dimethylglycyl)-5-(methyloxy)-2,3-dihydro-1H-indol-6-yl]amino}-5-fluoro-1H-pyrrolo[2,3-d]pyrimidin-4-yl)amino]-6-fluoro-N-methylbenzamide], the IC50 in the assay with NCI-H929 is 250 to 1000 nM; on human IGF1R (hIGF1R) it was 1.26 to 3.98 nM; in the assay on Colo205 it was 250 to 1000 nM; in assay [1], 100 to 500 nM.
